From US20050228180A1, “Alpha, omega-dicarboximide derivatives as useful uro-selective a1a adrenoceptor blockers” (priority 2002, published 2005) come the findings set out here.

Counter-ions that a name gives are not always drawn.

In assay [1] the target is T1, α1A adrenoceptor (Rattus norvegicus, UniProt P43140).
T1 construct: from tissue; host or cells: rat submaxillary gland membranes
T1 sequence (P43140 1-466): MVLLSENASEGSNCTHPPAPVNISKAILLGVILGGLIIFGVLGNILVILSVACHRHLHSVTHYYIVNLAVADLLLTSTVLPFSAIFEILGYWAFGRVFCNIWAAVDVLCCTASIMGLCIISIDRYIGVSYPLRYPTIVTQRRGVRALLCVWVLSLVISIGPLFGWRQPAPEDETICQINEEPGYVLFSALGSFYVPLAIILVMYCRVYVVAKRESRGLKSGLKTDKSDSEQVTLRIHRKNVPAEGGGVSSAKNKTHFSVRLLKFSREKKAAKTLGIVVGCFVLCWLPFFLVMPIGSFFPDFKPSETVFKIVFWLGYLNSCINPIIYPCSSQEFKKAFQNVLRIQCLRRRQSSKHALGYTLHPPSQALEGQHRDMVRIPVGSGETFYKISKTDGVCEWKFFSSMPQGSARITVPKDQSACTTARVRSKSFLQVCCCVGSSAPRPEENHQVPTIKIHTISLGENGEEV
In words: Radioligand binding, [3H] prazosin displacement, rat submaxillary membranes. Conditions: for α1B/α1A: ratio of binding affinities, rat liver / rat submaxillary; for Ki: [3H] prazosin displacement, rat submaxillary membranes, read-out: Affinity (Ki) α1A (Rat Submaxillary). The method, boiled down:
(§1)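 Displacement of [3H]prazosin measured by filtration and counting, with Ki from IC50 via Cheng–Prusoff and nonspecific binding set by 300 nM prazosin. Native rat submaxillary (α1A) or liver (α1B) membranes, 150-250 μg protein, 1 h at 24-25° C in Tris/EDTA pH 7.4.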

The target of assay [2] is T2, α1A adrenoceptor (prostate) (Rattus norvegicus, UniProt P43140).
T2 construct: from tissue; host or cells: isolated prostate tissue
T2 sequence (P43140 1-466): T1 sequence (P43140 1-466)
In words: In vitro functional assay, isolated prostate, phenylepinephrine contraction. The format is cell-based. Conditions: for Kb: read-out: α Adrenoceptor Subtype (pKB) α1A (converted). An excerpt: (§2) In order to study selectivity of action of these compounds towards different a-adrenoceptor subtypes, the ability of these compounds to antagonise (α1D) prostate (α1A) and spleen (α1B) was studied. Aorta and spleen tissues were isolated from urethane anaesthetized (1.5 g/kg) male wister rats. Isolated tissues were mounted in organ bath containing Krebs Henseleit buffer of the following composition (mM): NaCl 118; KCl 4.7; CaCl2 2.5; MgSO4 7H2O 1.2; NaHCO3 25; KH2PO4 1.2; glucose 11.5. Buffer was maintained at 37° C. and aereated with a mixture of 95% O2 and 5% CO2. A resting tension of 2 g (aorta) or 1 g (spleen and prostate) was applied to tissues. Contractile response was monitored using a force displacement transducer and recorded on chart recorders. Tissues were allowed to equilibrate for 2 hours. At the end of equilibration period, concentration response curves to norepinephrine (aorta) and phenylepinephrine (spleen and prostate) were obtained in the absence and presence of tested compound (at concentration of […]). Antagonist affinity was calculated and expressed as pKB values in Table II.

Assay [3] deals with T3, α1B adrenoceptor (spleen) (Rattus norvegicus, UniProt P15823).
T3 construct: Isolated tissues were mounted in organ bath containing Krebs Henseleit buffer; from tissue; host or cells: isolated rat spleen
T3 sequence (P15823 1-515): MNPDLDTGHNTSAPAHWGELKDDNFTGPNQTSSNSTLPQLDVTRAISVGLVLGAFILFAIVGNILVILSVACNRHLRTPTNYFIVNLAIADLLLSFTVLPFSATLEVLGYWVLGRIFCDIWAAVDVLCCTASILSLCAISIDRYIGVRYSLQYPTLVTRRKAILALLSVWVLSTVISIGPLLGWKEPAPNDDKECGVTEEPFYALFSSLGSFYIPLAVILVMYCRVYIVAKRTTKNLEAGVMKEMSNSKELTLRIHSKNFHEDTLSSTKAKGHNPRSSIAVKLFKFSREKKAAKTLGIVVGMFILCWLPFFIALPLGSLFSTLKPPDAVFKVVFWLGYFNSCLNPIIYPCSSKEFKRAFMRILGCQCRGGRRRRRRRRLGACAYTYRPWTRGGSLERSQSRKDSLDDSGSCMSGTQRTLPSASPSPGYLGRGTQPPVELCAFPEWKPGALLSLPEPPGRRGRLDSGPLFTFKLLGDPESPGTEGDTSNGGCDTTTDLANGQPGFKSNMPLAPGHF
In words: In vitro functional assay, isolated spleen, phenylepinephrine contraction. The format is cell-based.
Source text: as §2

The target of assay [4] is T4, α1D adrenoceptor (aorta) (Rattus norvegicus, UniProt P23944).
T4 construct: Isolated tissues were mounted in organ bath containing Krebs Henseleit buffer; from tissue; host or cells: isolated rat aorta
T4 sequence (P23944 1-561): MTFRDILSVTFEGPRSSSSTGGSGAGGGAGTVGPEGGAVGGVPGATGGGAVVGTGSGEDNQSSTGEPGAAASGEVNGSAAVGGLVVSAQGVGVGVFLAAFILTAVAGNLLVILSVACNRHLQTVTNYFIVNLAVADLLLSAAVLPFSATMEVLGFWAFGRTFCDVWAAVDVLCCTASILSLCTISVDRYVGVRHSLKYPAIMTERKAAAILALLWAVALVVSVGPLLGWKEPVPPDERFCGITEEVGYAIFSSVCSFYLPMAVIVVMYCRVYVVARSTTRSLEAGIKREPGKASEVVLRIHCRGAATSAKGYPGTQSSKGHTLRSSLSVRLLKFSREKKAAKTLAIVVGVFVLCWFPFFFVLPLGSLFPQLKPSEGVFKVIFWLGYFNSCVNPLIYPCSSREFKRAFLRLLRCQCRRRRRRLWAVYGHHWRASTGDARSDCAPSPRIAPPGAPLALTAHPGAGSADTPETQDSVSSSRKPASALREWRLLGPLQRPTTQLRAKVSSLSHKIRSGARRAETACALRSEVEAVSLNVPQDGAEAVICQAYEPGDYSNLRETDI
In words: In vitro functional assay, isolated aorta, norepinephrine contraction. The assay is classed as cell-based. Conditions: for Kb: read-out: α Adrenoceptor Subtype (pKB) α1D (converted).
Source text: as §2

Assay [5] addresses T5, α1B adrenoceptor (Rattus norvegicus, UniProt P15823).
T5 construct: from tissue; host or cells: rat liver membranes
T5 sequence (P15823 1-515): T3 sequence (P15823 1-515)
In words: Radioligand binding, [3H] prazosin displacement, rat liver membranes. Conditions: read-out: Affinity (Ki) α1B (Rat Liver). The method, boiled down:
as §1

Where [6] appears, read: rat prostate, phenylepinephrine.

For `CCOc1ccccc1N1CCN(CCCN2C(=O)C3CC(O)C(Cl)CC3C2=O)CC1.Cl` (stereo not drawn) [Compound No. 17], the α1B/α1A in assay [1] was determined as 50. Moreover, in assay [2] (functional, from pKB), the “Selectivity α1B/α1A” value is reported as 347 and the “Selectivity α1D/α1A” value worked out at 3.9. Also, the “α Adrenoceptor Subtype (pKB) α1A” value in assay [2] (setting [6]) amounted to 9.54. Also, the “α Adrenoceptor Subtype (pKB) α1B” value in assay [3] amounted to 7. The “α Adrenoceptor Subtype (pKB) α1D” value in assay [4] turned out to be 9.07.

Broadly, the Ki is the dissociation constant of the complex between target and ligand, obtained from inhibition or displacement. On to `CCOc1ccccc1N1CCN(CCCN2C(=O)C3CCC(O)CC3C2=O)CC1.Cl` (stereo not drawn) [Compound No. 18, 2-[3-{4-(2-Ethoxyphenyl)piperazin-1-yl}propyl]-5-hydroxy-3a,4,5,6,7,7a-hexahydro-1H-isoindole-1,3(2H)-dione hydrochloride], for which the Ki in assay [1] was determined as 1.5 nM; in assay [5] it was 97 nM. In addition, the α1B/α1A in assay [1] is listed as 65. The “Selectivity α1D/α1A” value in assay [2] (functional, from pKB) came to 1.3. In addition, the Kb in assay [2] (setting [6]) was 0.427 nM; in assay [4] it was 0.575 nM.

For `CC(C)Oc1cc(N)ccc1N1CCN(CCCN2C(=O)C3CC=CCC3C2=O)CC1.Cl` (stereo not drawn) [Compound No. 26, 2-[3-{4-(2-Isopropoxy-4-aminophenyl)piperazin-1-yl}propyl]-3a,4,7,7a-tetrahydro-1H-isoindole-1,3(2H)-dione hydrochloride], the Ki in assay [1] is 8.83 nM; in assay [5], 2090 nM. For the same compound, the α1B/α1A in assay [1] was found to be 237. In assay [2] (functional, from pKB), the “Selectivity α1D/α1A” value is 105. Besides, the Kb in assay [2] (setting [6]) is 1.58 nM; in assay [4] it was 166 nM.

On to `CC(C)Oc1ccccc1N1CCN(CC(O)CN2C(=O)CCCC2=O)CC1.Cl` (stereo not drawn) [Compound No. 29, 1-[4-(2-Isopropoxyphenyl)piperazin-1-yl]-2-hydroxy-3-(2,6-dioxopiperidin-1-yl)propane hydrochloride], for which the Ki in assay [1] was found to be 2.8 nM; in assay [5] it was 238 nM. The α1B/α1A in assay [1] was found to be 85. For the same compound, the “Selectivity α1D/α1A” value in assay [2] (functional, from pKB) is given as 45. Besides, the Kb was 0.229 nM in assay [2] (setting [6]) and 10.2 nM in assay [4].

In the case of `CC(C)Oc1ccccc1N1CCN(CC(O)CN2C(=O)C3CC4OC4CC3C2=O)CC1` (stereo not drawn) [Compound No. 30, 2-[3-{4-(2-Isopropoxyphenyl)piperazin-1-yl}-2-hydroxypropyl]-5,6-epoxy-3a,4,5,6,7,7a-hexahydro-1H-isoindole-1,3(2H)-dione], the Ki in assay [1] came out at 1.7 nM; in assay [5], 393 nM. The α1B/α1A in assay [1] is listed as 231. Moreover, in assay [2] (functional, from pKB), the “Selectivity α1D/α1A” value was determined as 5.2. Besides, the values for the Kb in assay [2] (setting [6]) and in assay [4] were 1.66 nM and 8.71 nM, respectively.

For the compound `O=C1C2CC=CCC2C(=O)N1CC(O)CN1CCN(c2ccccc2OCC(F)(F)F)CC1` (stereo not drawn) [Compound No. 31, 2-[3-{4-(2-(2,2,2-Trifluoroethoxyphenyl)piperazin-1-yl}-2-hydroxypropyl]-3a,4,7,7a-tetrahydro-1H-isoindole-1,3(2H)-dione hydrochloride], the values for the inhibitory constant (Ki) in assay [1] and in assay [5] were 2.3 nM and 91 nM, respectively. In assay [1], the α1B/α1A is 40. For the same compound, the “Selectivity α1D/α1A” value in assay [2] (functional, from pKB) amounted to 3.3. Besides, the Kb in assay [2] (setting [6]) was 1.45 nM; in assay [4] it was 4.79 nM.

As for `O=C1C2CC3OC3CC2C(=O)N1CCCN1CCN(c2ccccc2OCC(F)(F)F)CC1` (stereo not drawn) [Compound No. 32, 2-[3-{4-(2-(2,2,2-Trifluoroethoxy)phenyl)piperazin-1-yl}propyl]-5,6-epoxy-3a,4,5,6,7,7a-hexahydro-1H-isoindole-1,3(2H)-dione], the figures for the inhibitory constant (Ki) in assay [1] and in assay [5] were 0.18 nM and 51 nM, respectively. In addition, the α1B/α1A in assay [1] came out at 283. Also, the “Selectivity α1D/α1A” value in assay [2] (functional, from pKB) is reported as 23. For the same compound, the Kb was 0.676 nM in assay [2] (setting [6]) and 15.8 nM in assay [4].

Consider `O=C1C2CC3OC3CC2C(=O)N1CC(O)CN1CCN(c2ccccc2OCC(F)(F)F)CC1` (stereo not drawn) [Compound No. 34, 2-[3-{4-(2-(2,2,2-Trifluoroethoxy)phenyl)piperazin-1-yl}-2-hydroxypropyl]-5,6-epoxy-3a,4,5,7,7a-hexahydro-1H-isoindole-1,3(2H)-dione], for which the values for the Ki in assay [1] and in assay [5] were 1.95 nM and 311 nM, respectively. Besides, the α1B/α1A in assay [1] stood at 159. The “Selectivity α1D/α1A” value in assay [2] (functional, from pKB) turned out to be 15. The Kb was 1.26 nM in assay [2] (setting [6]) and 19.1 nM in assay [4].

Consider `CC(=O)OC1C=CCC2C(=O)N(CCCN3CCN(c4ccccc4OC(C)C)CC3)C(=O)C12` (stereo not drawn) [Compound No. 40, 2-[3-{4-(2-Isopropoxyphenyl)piperazin-1-yllpropyl]4-acetoxy-3a,4,7,7a-tetrahydro-1H-isoindole-1,3(2H)-dione hydrochloride], for which the values for the inhibition constant (Ki) in assay [1] and in assay [5] were 0.82 nM and 143 nM, respectively. Besides, the α1B/α1A in assay [1] is 174. For the same compound, the “Selectivity α1D/α1A” value in assay [2] (functional, from pKB) was 4.5. The Kb is 0.339 nM in assay [2] (setting [6]) and 1.51 nM in assay [4].

As for `CC(C)Oc1ccccc1N1CCN(CCCN2C(=O)C3CCCC(O)C3C2=O)CC1.Cl` (stereo not drawn) [Compound No. 60, 2-[3-{4-(2-Isopropoxyphenyl)piperazin-1-yl}-propyl]4-hydroxy-3a,4,5,6,7,7a-hexahydro-1H-isoindole-1,3(2H)-dione hydrochloride], the Ki in assay [1] came to 1.2 nM; in assay [5], 142 nM. The α1B/α1A in assay [1] is listed as 118. In addition, the “Selectivity α1D/α1A” value in assay [2] (functional, from pKB) stood at 18. Besides, the Kb in assay [2] (setting [6]) is 0.363 nM; in assay [4], 6.46 nM.

In the case of `COc1ccccc1N1CCN(CC(O)CN2C(=O)C3CC=CCC3C2=O)CC1.Cl` (stereo not drawn) [compound 06, 2-[3-{4-(2-Methoxyphenyl)piperazin-1-yl}-2-hydroxypropyl]-3a,4,7,7a-tetrahydro-1H-isoindole-1,3(2H)-dione hydrochloride], the Ki was determined as 38 nM in assay [1] and 263 nM in assay [5]. Also, the α1B/α1A in assay [1] is given as 7. Further, the “Selectivity α1D/α1A” value in assay [2] (functional, from pKB) amounted to 0.56. The results for the Kb in assay [2] (setting [6]) and in assay [4] were 6.61 nM and 3.72 nM, respectively.
